PubChem BioAssay (NCI)
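Following 48 hours of exposure in 96-well plates, responses at five concentrations were used to interpolate endpoints linearly. The concentration for 50% growth inhibition is given as GI50. TGI is the concentration that stops growth completely.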

Assays:
Test in all cases: NCI anticancer screen, dose series, 48 h
[1] = test system: CCRF-CEM leukemia
[2] = test system: COLO 205 colon
[3] = test system: EKVX NSCLC
[4] = test system: K-562 leukemia
[5] = test system: NCI-H226 lung
[6] = test system: RXF 393 renal
[7] = test system: SF-268 CNS
[8] = test system: SN12C renal
[9] = test system: SW-620 colon
[10] = test system: U251 CNS

## CC1=C2CC(C)(C)/C=C\C(=O)/C(C)=C\C3=C[C@H](C)C[C@]3(O2)C1=O
[1]
  TGI: 0.661 µM
[2]
  TGI: 9.27 µM
[3]
  TGI: 6.15 µM
[4]
  TGI: 14.4 µM
[5]
  TGI: 8.49 µM
[6]
  TGI: 2.13 µM
[7]
  TGI: 18.4 µM
[8]
  TGI: 10.2 µM
[9]
  TGI: 1.49 µM
[10]
  TGI: 9.98 µM

## COc1cc(Oc2c(C)c(Cl)c(OC)c(Cl)c2OC)c2c(c1Cl)COC2=O
[1]
  TGI: > 100 µM
[2]
  TGI: > 100 µM
[3]
  TGI: > 100 µM
[4]
  TGI: 8.51 µM
[5]
  TGI: > 100 µM
[6]
  TGI: > 100 µM
[7]
  TGI: > 100 µM
[8]
  TGI: 59.7 µM
[9]
  TGI: > 100 µM
[10]
  TGI: > 100 µM

## COC(=O)c1ccc2c(c1)C(=O)c1c-2n(CCCCl)c(=O)c2cc([N+](=O)[O-])ccc12
[1]
  GI50: 52.8 µM
  TGI: > 100 µM
[2]
  GI50: > 100 µM
  TGI: > 100 µM
[3]
  GI50: > 100 µM
  TGI: > 100 µM
[4]
  GI50: 59 µM
  TGI: > 100 µM
[5]
  GI50: > 100 µM
  TGI: > 100 µM
[6]
  GI50: > 100 µM
  TGI: > 100 µM
[7]
  GI50: 42.2 µM
  TGI: > 100 µM
[8]
  GI50: > 100 µM
  TGI: > 100 µM
[9]
  GI50: 44.6 µM
  TGI: > 100 µM
[10]
  GI50: 53.1 µM
  TGI: > 100 µM

## COc1cc2c3cc1Oc1c(OC)c(OC)cc4c1C(=NCC4)Cc1ccc(cc1)Oc1cc(ccc1O)C[C@H]3N(C)CC2
[1]
  TGI: > 100 µM
[2]
  TGI: 26.3 µM
[3]
  TGI: > 100 µM
[4]
  TGI: 74.1 µM
[5]
  TGI: 61.2 µM
[6]
  TGI: 24.9 µM
[7]
  TGI: > 100 µM
[8]
  TGI: 75.2 µM
[9]
  TGI: 36.7 µM
[10]
  TGI: 45.2 µM

## O=C1C(=C(C(F)(F)Cl)C(F)(F)Cl)C2CCC1C2 (stereo not drawn)
[1]
  TGI: > 10 µM
[2]
  TGI: 3.25 µM
[3]
  TGI: > 10 µM
[4]
  TGI: > 10 µM
[5]
  TGI: > 9.06 µM
[6]
  TGI: 3.07 µM
[7]
  TGI: > 6.62 µM
[8]
  TGI: 3.61 µM
[9]
  TGI: 3.98 µM
[10]
  TGI: > 10 µM

## O=C/C1=C/C2=Cc3ccccc3C=C(/C=C(/C=O)C1)C2
[1]
  TGI: 74.9 µM
[2]
  TGI: > 100 µM
[3]
  TGI: > 100 µM
[4]
  TGI: > 100 µM
[5]
  TGI: > 100 µM
[6]
  TGI: 88.6 µM
[7]
  TGI: > 100 µM
[8]
  TGI: > 100 µM
[9]
  TGI: > 100 µM
[10]
  TGI: > 100 µM

## CCN1CCC(Nc2ccnc3cc(Cl)ccc23)CC1
[1]
  GI50: 36.9 µM
  TGI: > 100 µM
[2]
  GI50: 12.5 µM
  TGI: 27.1 µM
[3]
  GI50: 35.2 µM
  TGI: > 100 µM
[4]
  GI50: 4.83 µM
  TGI: > 100 µM
[5]
  GI50: 39.1 µM
  TGI: > 100 µM
[6]
  GI50: 32.9 µM
  TGI: > 100 µM
[7]
  GI50: 23.6 µM
  TGI: > 100 µM
[8]
  GI50: 91.9 µM
  TGI: > 100 µM
[9]
  GI50: 21.8 µM
  TGI: > 100 µM
[10]
  GI50: 30.5 µM
  TGI: > 100 µM

## COC(OC)c1cc2c(cc1C=O)OCO2
[1]
  TGI: > 100 µM
[3]
  TGI: > 100 µM
[4]
  TGI: > 100 µM
[5]
  TGI: > 100 µM
[6]
  TGI: > 100 µM
[7]
  TGI: > 100 µM
[8]
  TGI: > 100 µM
[9]
  TGI: > 100 µM
[10]
  TGI: > 100 µM

## CO[C@@H]1C=C[C@@]23c4cc5c(cc4CN(C[C@@H]2O)[C@H]3C1)OCO5
[1]
  TGI: 47.7 µM
[3]
  TGI: > 100 µM
[4]
  TGI: > 100 µM
[5]
  TGI: > 100 µM
[6]
  TGI: > 100 µM
[7]
  TGI: > 100 µM
[8]
  TGI: 87.9 µM
[9]
  TGI: > 100 µM
[10]
  TGI: 73.1 µM
